Test results: PMC10044120, “Potent and selective covalent inhibition of the papain-like protease from SARS-CoV-2” (Nature Communications, 2023)
Several values for one entry are separate records, joined by “and”; a condition that tells them apart may be missing. Equal entries are not always repeated. Where two headings read alike, the source gives them in different places.

Experiments:
PLpro from SARS-CoV-2 = PLpro from SARS-CoV-2 (Severe acute respiratory syndrome coronavirus 2, UniProt P0DTD1); assay: biochemical; type: biochemical
[1] = system: SARS-CoV-2 isolate USA-WA1/2020
Vero E6 cells = settings: African green monkey
[2] = system: viral replication in Vero E6 cells; settings: cited from earlier work
in vitro = settings: African green monkey, cytotoxicity, %cell viability
[3] = system: SARS-CoV-2 isolate USA-WA1/2020; assay: microbe, parasite or virus in culture
[4] = Metabolic stability in rat liver microsomes; settings: Sprague-Dawley
[5] = Metabolic stability in rat liver S9 fraction; settings: Sprague-Dawley
[6] = Metabolic stability in human liver microsomes
[7] = Metabolic stability in mouse liver microsomes; settings: CD-1, mouse
[8] = Metabolic stability in human liver S9 fraction
[9] = Metabolic stability in mouse liver S9 fraction; settings: CD-1, mouse
HAUSP = settings: cited from earlier work
deISGylase USP18 = settings: cited from earlier work
UCH-L1 = settings: cited from earlier work
UCH-L3 = settings: cited from earlier work
[10] = Severe acute respiratory syndrome coronavirus 2, Vero C1008, read-out: cytopathic effect, % cell viability

Q: Which remaining activity at 0.02 µM (PLpro from SARS-CoV-2; 0.5 h, inhibitor 0.02 uM) does the source give for Cc1ccccc1C(=O)N[C@H](C)c1cccc2ccccc12 [Compound 14, (R)-2-methyl-N-(1-(naphthalen-1-yl)ethyl)benzamide] here?
A: 96.3%

Q: And the remaining activity at 0.06 µM (PLpro from SARS-CoV-2; 0.5 h, inhibitor 0.06 uM)?
A: 94.2%

Q: What about the remaining activity at 0.2 µM (PLpro from SARS-CoV-2; 0.5 h, inhibitor 0.20 uM) of the same compound?
A: 103%

Q: What about the remaining activity at 2.01 µM (PLpro from SARS-CoV-2; 0.5 h, inhibitor 2.01 uM) of the same compound?
A: 90.5%

Q: What about the remaining activity at 6.34 µM (PLpro from SARS-CoV-2; 0.5 h, inhibitor 6.34 uM) of the same compound?
A: 77.4%

Q: And the remaining activity at 20 µM (PLpro from SARS-CoV-2; 0.5 h, inhibitor 20.00 uM)?
A: 56.2%

Q: What about the remaining activity at 200 µM (PLpro from SARS-CoV-2; 0.5 h, inhibitor 200.00 uM) of the same compound?
A: 40.8%

Q: And the IC50 (PLpro from SARS-CoV-2; after 30-min incubation, […])?
A: 100 µM

Q: What about the inhibition ([1]; read-out: cytopathic effect, % cell viability, [inhibitor] 2.08 uM, duplicate wells, 2.08 µM) of the same compound?
A: 7.39%

Q: What about the inhibition ([1]; read-out: cytopathic effect, % cell viability, [inhibitor] 16.65 uM, duplicate wells, 16.65 µM) of the same compound?
A: 5.25%

Q: What about the “cytotoxicity, %cell viability” value (Vero E6 cells; 48 h, 2.08 µM) of the same compound?
A: 96.55%

Q: And the “cytotoxicity, %cell viability” value (Vero E6 cells; 48 h, 8.33 µM)?
A: 99.10%

Q: And the “cytotoxicity, %cell viability” value (Vero E6 cells; 48 h, 16.65 µM)?
A: 92.38%

Q: What about the EC50 [2] of the same compound?
A: 10 µM

Q: And the viability at 48 h, 2.08 µM (in vitro)?
A: 100%

Q: And the viability at 48 h, 8.33 µM (in vitro)?
A: 95.2%

Q: What about the viability at 48 h, 16.65 µM (in vitro) of the same compound?
A: 95.7%

Q: What about the inhibition at […] [3, 10] of the same compound?
A: 7.92% and 10.7%

Q: And the inhibition at 2.08 µM ([3]; Severe acute respiratory syndrome coronavirus 2, Vero C1008, read-out: cytopathic effect, % cell viability, [inhibitor] 2.08 uM, duplicate wells)?
A: 11.3%

Q: And the inhibition at 16.65 µM ([3]; Severe acute respiratory syndrome coronavirus 2, Vero C1008, read-out: cytopathic effect, % cell viability, [inhibitor] 16.65 uM, duplicate wells)?
A: 7.05%

Q: What about the half-life [4] of the same compound?
A: 21 min

Q: What about the microsomal CLint [4] of the same compound?
A: 330 µL/min/mg

Q: What about the half-life [5] of the same compound?
A: 17 min

Q: What about the microsomal CLint [5] of the same compound?
A: 138 µL/min/mg

Q: And the half-life [6]?
A: 41 min

Q: And the microsomal CLint [6]?
A: 171 µL/min/mg

Q: What about the half-life [7] of the same compound?
A: 16 min

Q: What about the microsomal CLint [7] of the same compound?
A: 435 µL/min/mg

Q: And the half-life [8]?
A: > 60 min

Q: And the microsomal CLint [8]?
A: < 38.5 µL/min/mg

Q: And the half-life [9]?
A: 18 min

Q: And the microsomal CLint [9]?
A: 128 µL/min/mg

Q: For Cc1ccc(N)cc1C(=O)N[C@H](C)c1cccc2ccccc12 [GRL0617, reference compound], which inhibition ([1]; African green monkey, 2.08 µM) is on record?
A: 8.22%

Q: What about the inhibition ([1]; African green monkey, 8.33 µM) of the same compound?
A: 3.62%

Q: What about the “cytotoxicity, %cell viability” value (Vero E6 cells; 2.08 µM) of the same compound?
A: 100.64%

Q: What about the “cytotoxicity, %cell viability” value (Vero E6 cells; 8.33 µM) of the same compound?
A: 100.01%

Q: And the “cytotoxicity, %cell viability” value (Vero E6 cells; 16.65 µM)?
A: 87.87%

Q: And the IC50 (HAUSP)?
A: > 100 µM

Q: What about the IC50 (deISGylase USP18) of the same compound?
A: > 100 µM

Q: What about the IC50 (UCH-L1) of the same compound?
A: > 100 µM

Q: What about the IC50 (UCH-L3) of the same compound?
A: > 100 µM

Q: And the viability at 2.08 µM (in vitro)?
A: 99.1%

Q: What about the viability at 8.33 µM (in vitro) of the same compound?
A: 93.3%

Q: And the viability at 16.65 µM (in vitro)?
A: 80.3%

Q: And the viability at […] (in vitro)?
A: 104% and 102% and 77.8% and 100%

Q: What about the inhibition at 2.08 µM [3, 10] of the same compound?
A: 15.2%

Q: What about the inhibition at 8.33 µM [3, 10] of the same compound?
A: 7.11%

Q: What about the inhibition at […] [3, 10] of the same compound?
A: 11.5% and 6.73% and 8.44%
